The values that follow are results of earlier work, collected in patent US6683065B1, “Method of treating body insect infestation” (Host Pharmaceuticals LLC, priority 1999, dated 2004).

The conditions of this series: at 20° C.

Turning to n-alkanes, the “Surface Tension” value is on record as 37.8^1 dynes/cm.

For the substance n-fluoroalkanes, the “Surface Tension” value is on record as 25.9^1 dynes/cm.
